We go through 28 compounds from patent US9814704B2, “Substituted pyrrolo[2,3-b]pyridines as MLK inhibitors” (The University of Rochester, priority 2008, dated 2017).

The target of the assay is MLK3 (Homo sapiens (Human), UniProt Q16584). The experiment in a line: Radiometric Filter Plate MLK3 Assay. In kind it is biochemical. Particulars: read-out: MK3 IC50. The protocol:
Radiometric Filter Plate MLK3 Assay
After a twenty minute incubation, the reactions were washed through filter plates and read on a scintillation counter. Results are shown in Table 4 below, in which +++ indicates ≦0.1 μM, ++ indicates >0.1 μM and ≦1 μM, and + indicates >1 μM.

Where [1] appears, read: 200 ng (130 nM) MLK3, 1 μM inactive MKK7b, 2 μM cold ATP (Km), 33P ATP, twenty minute incubation.

Read-outs that look alike come from different tables or passages of the source.

MLK3, sequence (Q16584 whole entry): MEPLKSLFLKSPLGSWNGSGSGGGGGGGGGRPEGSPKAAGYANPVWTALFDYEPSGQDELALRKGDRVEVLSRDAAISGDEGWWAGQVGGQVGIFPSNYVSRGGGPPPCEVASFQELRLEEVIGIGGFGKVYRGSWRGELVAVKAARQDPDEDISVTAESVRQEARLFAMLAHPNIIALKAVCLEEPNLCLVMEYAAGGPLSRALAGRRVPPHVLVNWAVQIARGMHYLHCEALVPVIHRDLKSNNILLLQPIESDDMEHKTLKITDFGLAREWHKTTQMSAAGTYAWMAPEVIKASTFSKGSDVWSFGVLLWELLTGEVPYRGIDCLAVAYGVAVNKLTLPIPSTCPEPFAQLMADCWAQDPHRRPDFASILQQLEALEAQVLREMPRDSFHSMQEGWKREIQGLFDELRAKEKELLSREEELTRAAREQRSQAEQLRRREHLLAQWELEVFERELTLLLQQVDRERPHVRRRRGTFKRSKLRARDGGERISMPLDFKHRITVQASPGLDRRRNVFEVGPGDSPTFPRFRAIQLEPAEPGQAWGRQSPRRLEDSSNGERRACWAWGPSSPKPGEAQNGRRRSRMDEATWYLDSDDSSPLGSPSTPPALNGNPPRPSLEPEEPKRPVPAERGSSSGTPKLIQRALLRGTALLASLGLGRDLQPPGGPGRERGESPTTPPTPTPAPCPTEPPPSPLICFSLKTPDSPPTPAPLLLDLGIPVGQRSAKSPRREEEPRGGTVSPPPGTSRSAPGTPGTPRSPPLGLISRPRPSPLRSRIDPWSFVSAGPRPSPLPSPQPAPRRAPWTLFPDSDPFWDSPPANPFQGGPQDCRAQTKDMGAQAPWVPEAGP

Usually IC50 stands for the point on the concentration scale where inhibition reaches its midpoint. Turning to `COc1cc(-c2cnc3[nH]cc(-c4ccc(C(N)=O)cc4)c3c2)ccc1N` [Example 27, 4-(5-(4-amino-3-methoxyphenyl)-1H-pyrrolo[2,3-b]pyridin-3-yl)benzamide], the half-inhibitory concentration (IC50) lay in the range of 0.1 to 1 µM.
With `CN1CCN(C(=O)c2cccc(-c3cnc4[nH]cc(-c5ccc6[nH]ccc6c5)c4c3)c2)CC1` [Example 147, {3-[3-(1H-indol-5-yl)-1H-pyrrolo[2,3-b]pyridin-5-yl]-phenyl}-(4-methyl-piperazin-1-yl)-methanone], the IC50 under setting [1] is less than 0.1 µM.
Regarding `COc1cc(-c2cnc3[nH]c(=O)n(-c4ccc5[nH]c(C)cc5c4)c3n2)cc(OC)c1OC` [Example 72, 1-(2-methyl-1H-indol-5-yl)-6-(3,4,5-trimethoxyphenyl)-1H-imidazo[4,5-b]pyrazin-2(3H)-one], the IC50 under setting [1] is less than 0.1 µM.
On the same count and under the same terms, for `CS(=O)(=O)Nc1ccc(-c2cnc3[nH]cc(-c4ccc5[nH]ccc5c4)c3c2)cc1` [Example 11, N-(4-(3-(1H-indol-5-yl)-1H-pyrrolo[2,3-b]pyridin-5-yl)phenyl)methanesulfonamide] the value was less than 0.1 µM.
As for `COc1ccc(-c2cnc3[nH]c(=O)n(-c4ccc5cn[nH]c5c4)c3n2)cc1OC` [Example 91, 6-(3,4-dimethoxyphenyl)-1-(1H-indazol-6-yl)-1H-imidazo[4,5-b]pyrazin-2(3H)-one], the IC50 is 0.1 to 1 µM.
In the case of `COc1cc(-c2cnc3[nH]c(=O)n(CC4CC4)c3n2)cc(OC)c1OC` [Example 78, 1-(cyclopropylmethyl)-6-(3,4,5-trimethoxyphenyl)-1H-imidazo[4,5-b]pyrazin-2(3H)-one], the IC50 lay in the range of 0.1 to 1 µM.
Regarding `COc1ccc(-n2c(=O)[nH]c3ncc(-c4ccncc4)nc32)cc1` [Example 71, 1-(4-methoxyphenyl)-6-(pyridin-4-yl)-1H-imidazo[4,5-b]pyrazin-2(3H)-one], the IC50 under setting [1] is more than 1 µM.
`COc1ccc(-c2cnc3[nH]cc(-c4ccc5[nH]ccc5c4)c3c2)cn1` [Example 6, 3-(1H-indol-5-yl)-5-(6-methoxypyridin-3-yl)-1H-pyrrolo[2,3-b]pyridine]: the IC50 was 0.1 to 1 µM.
As for `COc1cc(-c2cnc3[nH]cc(-c4ccc5c(ccn5C)c4)c3c2)cc(OC)c1OC` [Example 24, 3-(1-methyl-1H-indol-5-yl)-5-(3,4,5-trimethoxyphenyl)-1H-pyrrolo[2,3-b]pyridine], the IC50 under setting [1] is less than 0.1 µM.
Still for that read-out and setting: for `O=c1[nH]c2ncc(-c3ccncc3)nc2n1-c1ccc2scnc2c1` [Example 98, 1-(benzo[d]thiazol-5-yl)-6-(pyridin-4-yl)-1H-imidazo[4,5-b]pyrazin-2(3H)-one] the value was more than 1 µM; for `COc1cc(-c2cnc3[nH]c(=O)n(C4Cc5ccccc5C4)c3n2)cc(OC)c1OC` [Example 110, 1-(2,3-dihydro-1H-inden-2-yl)-6-(3,4,5-trimethoxyphenyl)-1H-imidazo[4,5-b]pyrazin-2(3H)-one], less than 0.1 µM; for `O=c1[nH]c2ncc(-c3ccncc3)nc2n1-c1ccc2[nH]ncc2c1` [Example 88, 1-(1H-indazol-5-yl)-6-(pyridin-4-yl)-1H-imidazo[4,5-b]pyrazin-2(3H)-one], more than 1 µM.
For `COc1ccc(-c2cnc3[nH]c(=O)n(-c4ccc(O)cc4)c3n2)cc1OC` [Example 115, 6-(3,4-dimethoxyphenyl)-1-(4-hydroxyphenyl)-1H-imidazo[4,5-b]pyrazin-2(3H)-one], the half-maximal inhibitory concentration (IC50) lay within 0.1 to 1 µM.
As for `CC(=O)N1CCN(C(=O)c2ccc(-c3cnc4[nH]cc(-c5ccc(C(N)=O)cc5)c4c3)cc2)CC1` [Example 150, 4-{5-[4-(4-acetyl-piperazine-1-carbonyl)-phenyl]-1H-pyrrolo[2,3-b]pyridin-3-yl}-benzamide], the IC50 was in the range of 0.1 to 1 µM.
In the case of `COc1cc(-c2cnc3c(c2)C(Cc2ccc(C(N)=O)cc2)C(=O)N3)cc(OC)c1OC` (stereo not shown) [Example 138, 4-[2-oxo-5-(3,4,5-trimethoxy-phenyl)-2,3-dihydro-1H-pyrrolo[2,3-b]pyridin-3-ylmethyl]-benzamide], the IC50 under setting [1] is more than 1 µM.
In the case of `COc1cc(-c2cnc3c(c2)C(C)(C)C(=O)N3)cc(OC)c1OC` [Example 120, 3,3-dimethyl-5-(3,4,5-trimethoxyphenyl)-1H-pyrrolo[2,3-b]pyridin-2(3H)-one], the IC50 lay in the range of 0.1 to 1 µM.
For the compound `Cc1cc2cc(-n3c(=O)[nH]c4ncc(-c5ccncc5)nc43)ccc2[nH]1` [Example 85, 1-(2-methyl-1H-indol-5-yl)-6-(pyridin-4-yl)-1H-imidazo[4,5-b]pyrazin-2(3H)-one], the IC50 under setting [1] was more than 1 µM.
`Cc1cc2cc(-n3c(=O)[nH]c4ncc(-c5ccc(O)cc5)nc43)ccc2[nH]1` [Example 84, 6-(4-hydroxyphenyl)-1-(2-methyl-1H-indol-5-yl)-1H-imidazo[4,5-b]pyrazin-2(3H)-one]: the IC50 is 0.1 to 1 µM.
As to `COc1cc(-c2cnc3[nH]c(=O)n(-c4ccc(N5CCOCC5)nc4)c3n2)cc(OC)c1OC` [Example 109, 1-(6-morpholinopyridin-3-yl)-6-(3,4,5-trimethoxyphenyl)-1H-imidazo[4,5-b]pyrazin-2(3H)-one], the IC50 under setting [1] was more than 1 µM.
Regarding `COc1ccc(-n2c(=O)[nH]c3ncc(-c4cc(OC)c(OC)c(OC)c4)nc32)cc1` [Example 68, 1-(4-methoxyphenyl)-6-(3,4,5-trimethoxyphenyl)-1H-imidazo[4,5-b]pyrazin-2(3H)-one], the IC50 was in the range of 0.1 to 1 µM.
Consider `O=c1[nH]c2ncc(-c3ccc(O)cc3)nc2n1CC1CC1` [Example 81, 1-(cyclopropylmethyl)-6-(4-hydroxyphenyl)-1H-imidazo[4,5-b]pyrazin-2(3H)-one], for which the IC50 under setting [1] is more than 1 µM.
With `Cc1cc(C)cc(-c2cnc3[nH]c(=O)n(-c4ccc5[nH]ccc5c4)c3n2)c1` [Example 46, 6-(3,5-dimethylphenyl)-1-(1H-indol-5-yl)-1H-imidazo[4,5-b]pyrazin-2(3H)-one], the IC50 under setting [1] was more than 1 µM.
Same read-out and setting: for `O=c1[nH]c2ncc(-c3ccc4cc[nH]c4c3)nc2n1-c1ccc2[nH]ccc2c1` [Example 56, 1-(1H-indol-5-yl)-6-(1H-indol-6-yl)-1H-imidazo[4,5-b]pyrazin-2(3H)-one] the value was more than 1 µM; for `CNC(=O)c1ccc(-c2c[nH]c3ncc(-c4ccc(CN5CCN(C)CC5)cc4)cc23)cc1` [Example 165, N-methyl-4-{5-[4-(4-methyl-piperazin-1-ylmethyl)-phenyl]-1H-pyrrolo[2,3-b]pyridin-3-yl}-benzamide], less than 0.1 µM.
Same read-out and setting: for `O=c1[nH]c2ncc(-c3ccc(N4CCOCC4)cc3)nc2n1-c1ccc2[nH]ncc2c1` [Example 89, 1-(1H-indazol-5-yl)-6-(4-morpholinophenyl)-1H-imidazo[4,5-b]pyrazin-2(3H)-one] the value was more than 1 µM.
Regarding `COc1cc(-c2cnc3[nH]c(=O)n(-c4ccc5cn[nH]c5c4)c3n2)cc(OC)c1OC` [Example 90, 1-(1H-indazol-6-yl)-6-(3,4,5-trimethoxyphenyl)-1H-imidazo[4,5-b]pyrazin-2(3H)-one], the IC50 was 0.1 to 1 µM.
For the compound `COc1cc(-c2cnc3[nH]c(=O)n(-c4ccc5[nH]ccc5c4)c3n2)ccc1O` [Example 55, 6-(4-hydroxy-3-methoxyphenyl)-1-(1H-indol-5-yl)-1H-imidazo[4,5-b]pyrazin-2(3H)-one], the IC50 under setting [1] was less than 0.1 µM.
With `O=c1[nH]c2ncc(-c3ccc(O)cc3)nc2n1-c1ccc2scnc2c1` [Example 97, 1-(benzo[d]thiazol-5-yl)-6-(4-hydroxyphenyl)-1H-imidazo[4,5-b]pyrazin-2(3H)-one], the IC50 was in the range of 0.1 to 1 µM.
